Experimental findings from patent US5663148A, “Anaphylatoxin receptor ligands containing lipophilic residues” (Abbott Laboratories, priority 1994, dated 1997) are described below.

*1 amine or outer side, *2 acyl side, *3 side chain or, on linkers, in order; H or OH if unused. Where a SMILES comes first, the peptide text is derived from it. [ ]: non-standard residue; d: D form. The star is where a group is joined. ξ: configuration not given here. X13 = O=C([C@H](CC1CCCCC1)N(CCc1ccccc1)[*:1])[*:2]; d(hhPhe) = N[C@H](CCCc1ccccc1)C(=O)O; Cha = N[C@@H](CC1CCCCC1)C(=O)O; ξhhPhe = NC(CCCc1ccccc1)C(=O)O; X6 = O=C(c1cc2ccccc2[nH]1)*; 3Amb = NCc1cccc(C(=O)O)c1; Ahx = NCCCCCC(=O)O; Bn = c1ccc(C*)cc1

The target of the experiment is T1, C5a receptor (Homo sapiens, UniProt P21730).
T1 construct: from tissue; host or cells: polymorphonuclear leukocyte (PMNL) membrane fragments
T1 sequence (P21730 1-350): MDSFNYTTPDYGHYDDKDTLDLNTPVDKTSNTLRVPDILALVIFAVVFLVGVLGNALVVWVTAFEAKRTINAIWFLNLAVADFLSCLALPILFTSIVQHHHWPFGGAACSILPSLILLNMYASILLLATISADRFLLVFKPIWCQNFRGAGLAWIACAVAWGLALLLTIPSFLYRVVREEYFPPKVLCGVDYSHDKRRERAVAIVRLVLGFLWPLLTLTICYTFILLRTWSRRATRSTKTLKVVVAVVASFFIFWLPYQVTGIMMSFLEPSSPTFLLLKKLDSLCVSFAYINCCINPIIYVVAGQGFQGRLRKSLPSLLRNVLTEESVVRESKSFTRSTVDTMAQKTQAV
Put plainly: Anaphylatoxin (C5a) receptor binding Ki determination, 125I-C5a on PMNL membrane fragments. Particulars: read-out: Ki (In vitro C5a Receptor Binding Potency). On the procedure: The membrane-bound radiolabeled C5a was separated from the free radiolabeled C5a by filtration, and the recovered gamma radioactivity was measured. […] Free and membrane-bound ligand were separated by filtration.
As usually defined, the Ki is the equilibrium dissociation constant of an inhibitor or competing ligand from its target. Consider `CC(C)C[C@H](NC(=O)CNC(=O)[C@H](CC1CCCCC1)NC(=O)[C@H](N)CCCCN)C(=O)NC(CCCc1ccccc1)C(=O)N[C@@H](CCCNC(=N)N)C(=O)O` (single isomer, unassigned) [Example 57], for which the Ki came to 1.93 µM.
Under `CC(C)C[C@H](NC(=O)CN(C)C(=O)[C@H](CC1CCCCC1)NC(=O)CCCCCCN)C(=O)NC(CCCc1ccccc1)C(=O)N[C@@H](CCCNC(=N)N)C(=O)O` (single isomer, unassigned) [Example 60] stands 19 µM.
Under `CC(C)C[C@H](NC(=O)CNC(=O)[C@H](CC1CCCCC1)NCCc1ccccc1)C(=O)N[C@H](CCCc1ccccc1)C(=O)N[C@@H](CCCNC(=N)N)C(=O)O` [Example 78, N-(2-Phenethyl)-{(2S)-2-Amino-3-cyclohexylpropanoyl}-Glycyl-Leucyl-{(R)-2-Amino-5-phenylpentanoyl}-Arginyl-OH] (H-[X13]GL[d(hhPhe)]R-OH) stands 0.07 µM.
Under `CC(C)C[C@H](NC(=O)[C@@H](CCCCN)NC(=O)[C@@H](N)CC1CCCCC1)C(=O)NC(CCCc1ccccc1)C(=O)N[C@@H](CCCNC(=N)N)C(=O)O` (mixture of isomers) [Example 98, H-{(2S)-2-Amino-3-cyclohexylpropanoyl}-DLysyl-Leucyl-{(R/S)-2-Amino-5-phenylpentanoyl}-Arginyl-OH] stands 44.7 µM; under `CC(C)C[C@H](NC(=O)CNC(=O)[C@H](Cc1ccccc1)NC(=O)CCCCCN)C(=O)NC(CCCc1ccccc1)C(=O)N[C@@H](CCCNC(=N)N)C(=O)O` (single isomer, unassigned) [Example 124, N-(6-Aminohexanoyl)-Phenylalanyl-Glycyl-Leucyl{(R/S)-2-Amino-5-phenylpentanoyl}-Arginyl-OH], 34 µM.
Take `CC(C)C[C@H](NC(=O)CNC(=O)c1cc2ccccc2[nH]1)C(=O)N[C@H](CCCc1ccccc1)C(=O)N[C@@H](CCCNC(=N)N)C(=O)O` [Example 131, N-[(Indol-2-yl)-carbonyl]-Glycyl-Leucyl-{(R)-2-Amino-5-phenylpentanoyl}-Arginyl-OH] (X6-GL[d(hhPhe)]R-OH): the Ki came out at 0.56 µM.
Under `CC(C)C[C@H](NC(=O)[C@H](C)NC(=O)[C@H](CC1CCCCC1)NC(=O)CNC(=O)CCCCCN)C(=O)NC(CCCc1ccccc1)C(=O)N[C@@H](CCCNC(=N)N)C(=O)O` (single isomer, unassigned) [Example 32] stands 10 µM; under `N=C(N)NCCC[C@H](NC(=O)C(CCCc1ccccc1)NC(=O)c1cccc(CNC(=O)[C@H](CC2CCCCC2)NC(=O)[C@@H]2CCCN2C(=O)CCCCCN)c1)C(=O)O` (stereo partly drawn) [Example 109, N-(6-Aminohexanoyl)-Prolyl-{(2S)-2-Amino-3-cyclohexylpropanoyl}-(3-Aminomethylbenzoyl)-{(+)-2-Amino-5-phenylpentanoyl}-Arginyl-OH] (H-[Ahx]P[Cha][3Amb][ξhhPhe]R-OH), 4.8 µM.
Under `CC(C)C[C@H](NC(=O)[C@H](C)NC(=O)[C@H](CC1CCCCC1)NC(=O)[C@@H]1CCCN1C(=O)[C@H](CCCCN)NC(=O)CN)C(=O)N[C@@H](CSCc1ccccc1)C(=O)N[C@@H](CCCNC(=N)N)C(=O)O` [Example 108, H-Glycyl-Lysyl-Prolyl-{(2S)-2-Amino-3-cyclohexylpropanoyl}-Alanyl-Leucyl-Cysteinyl(S-benzyl)-Arginyl-OH] (H-GKP[Cha]ALC(Bn)R-OH) stands 4.8 µM; under `CC(C)C[C@H](NC(=O)CNC(=O)[C@H](CC1CCCCC1)NC(=O)CCN)C(=O)NC(CCCc1ccccc1)C(=O)N[C@@H](CCCNC(=N)N)C(=O)O` (single isomer, unassigned) [Example 85], 2 µM; under `CC(C)C[C@H](NC(=O)CNC(=O)[C@H](CC1CCCCC1)NC(=O)[C@@H](N)CCCCN)C(=O)NC(CCCc1ccccc1)C(=O)N[C@@H](CCCNC(=N)N)C(=O)O` (single isomer, unassigned) [Example 42, H-Lysyl-{(2S)-2-Amino-3-cyclohexylpropanoyl}-Glycyl-Leucyl-{(R/S)-2-Amino-5-phenylpentanoyl}-Arginyl-OH], 0.45 µM.
Consider `CC(C)C[C@H](NC(=O)CNC(=O)[C@@H](N)CSCc1ccccc1)C(=O)N[C@H](CCCc1ccccc1)C(=O)N[C@@H](CCCNC(=N)N)C(=O)O` [Example 90, H-Cysteinyl(S-benzyl)-Glycyl-Leucyl-{(R)-2-Amino-5-phenylpentanoyl}-Arginyl-OH] (H-C(Bn)GL[d(hhPhe)]R-OH), for which the inhibition constant Ki is 0.18 µM.
Under `CC(C)C[C@@H](C(=O)NC(CCCc1ccccc1)C(=O)N[C@@H](CCCNC(=N)N)C(=O)O)N(C)C(=O)CNC(=O)[C@H](CC1CCCCC1)NC(=O)CCCCCCN` (mixture of isomers) [Example 27, N-(7-Aminoheptanoyl)-{(2S)-2-Amino-3-cyclohexylpropanoyl}-Glycyl-Leucyl(N-methyl)-{(R/S)-2-Amino-5-phenylpentanoyl}-Arginyl-OH] stands 0.45 µM; under `CC(C)C[C@H](NC(=O)CNC(=O)[C@H](CC1CCCCC1)NC(=O)CCCCCCN)C(=O)N(C)C(CCCc1ccccc1)C(=O)N[C@@H](CCCNC(=N)N)C(=O)O` (mixture of isomers) [Example 28], 1.72 µM; under `CC(C)C[C@H](NC(=O)[C@H](C)NC(=O)[C@H](CC1CCCCC1)NC(=O)CNC(=O)CCCCCN)C(=O)NC(CCCc1ccccc1)C(=O)N[C@@H](CCCNC(=N)N)C(=O)O` (single isomer, unassigned) [Example 33], 0.68 µM.
On to `CC(=O)N[C@@H](CC1CCCCC1)C(=O)NCC(=O)N[C@@H](CC(C)C)C(=O)NC(CCCc1ccccc1)C(=O)N[C@@H](CCCNC(=N)N)C(=O)O` (single isomer, unassigned) [Example 46, N-Acetyl-{(2S)-2-Amino-3-cyclohexylpropanoyl}-Glycyl-Leucyl-{(R/S)-2-Amino-5-phenylpentanoyl}-Arginyl-OH], for which the inhibition constant Ki is 22 µM.
Under `CC(C)C[C@H](NC(=O)[C@H](C)NC(=O)[C@H](CC1CCCCC1)NC(=O)[C@@H]1CCCN1C(=O)[C@H](CCCCN)NC(=O)CN)C(=O)N[C@H](CSCc1ccccc1)C(=O)N[C@@H](CCCNC(=N)N)C(=O)O` [Example 31, H-Glycyl-Lysyl-Propyl-{(2S)-2-Amino-3-cyclohexylpropanoyl}-Alanyl-Leucyl-DCysteinyl(S-benzyl)-Arginyl-OH] (H-GKP[Cha]AL[dC](Bn)R-OH) stands 1.1 µM; under `CC(C)C[C@@H](NC(=O)CNC(=O)[C@H](CC1CCCCC1)NC(=O)CCCCCN)C(=O)NC(CCCc1ccccc1)C(=O)N[C@@H](CCCNC(=N)N)C(=O)O` (single isomer, unassigned) [Example 99], 4.8 µM; under `CC(C)C[C@H](NC(=O)CNC(=O)[C@H](CC1CCCCC1)NC(=O)CN)C(=O)NC(CCCc1ccccc1)C(=O)N[C@@H](CCCNC(=N)N)C(=O)O` (single isomer, unassigned) [Example 72], 4.27 µM.
For `N=C(N)NCCC[C@H](NC(=O)C(CCCc1ccccc1)NC(=O)CN(Cc1ccccc1)C(=O)[C@H](CCCCN)NC(=O)[C@@H](N)Cc1ccccc1)C(=O)O` (single isomer, unassigned) [Example 95, H-Phenylalanyl-Lysyl-Glycyl(N-benzyl)-{(R/S)-2-Amino-5-phenylpentanoyl}-Arginyl-OH] the value was 34 µM; for `CC(C)C[C@H](NC(=O)CNC(=O)[C@H](CCC1CCCCC1)NC(=O)CCCCCN)C(=O)NC(CCCc1ccccc1)C(=O)N[C@@H](CCCNC(=N)N)C(=O)O` (single isomer, unassigned) [Example 137], 4.2 µM.
